From ChEMBL document CHEMBL3868641, “Discovery, characterization and biological evaluation of a novel (R)-4,4-difluoropiperidine scaffold as dopamine receptor 4 (D4R) antagonists” (Bioorg Med Chem Lett, 2016) come the findings set out here.

Test [1] is described as follows: Displacement of [3H]Spiperone from recombinant human Dopamine D4.4 receptor expressed in CHO-K1 cell membranes after 120 mins. In general terms: In a radioligand displacement assay an active substance lowers the binding of a labelled ligand.
A short description of test [2]: Displacement of [3H]Spiperone from recombinant human Dopamine D4.4 receptor expressed in CHO-K1 cell membranes at 10 uM after 120 mins relative to control.
Test [3] concerns the target D(3) dopamine receptor (Homo sapiens) (UniProt P35462). Briefly: Displacement of [3H]Spiperone from recombinant human Dopamine D3 receptor expressed in CHO cell membranes at 10 uM after 120 mins relative to control.
The target in test [4] is D(1B) dopamine receptor (Homo sapiens) (UniProt P21918). The test is described as follows: Displacement of [3H]SCH-23390 from recombinant human Dopamine D5 receptor expressed in CHO cell membranes at 10 uM after 120 mins relative to control.
D(1B) dopamine receptor (Homo sapiens), sequence (P21918 whole entry): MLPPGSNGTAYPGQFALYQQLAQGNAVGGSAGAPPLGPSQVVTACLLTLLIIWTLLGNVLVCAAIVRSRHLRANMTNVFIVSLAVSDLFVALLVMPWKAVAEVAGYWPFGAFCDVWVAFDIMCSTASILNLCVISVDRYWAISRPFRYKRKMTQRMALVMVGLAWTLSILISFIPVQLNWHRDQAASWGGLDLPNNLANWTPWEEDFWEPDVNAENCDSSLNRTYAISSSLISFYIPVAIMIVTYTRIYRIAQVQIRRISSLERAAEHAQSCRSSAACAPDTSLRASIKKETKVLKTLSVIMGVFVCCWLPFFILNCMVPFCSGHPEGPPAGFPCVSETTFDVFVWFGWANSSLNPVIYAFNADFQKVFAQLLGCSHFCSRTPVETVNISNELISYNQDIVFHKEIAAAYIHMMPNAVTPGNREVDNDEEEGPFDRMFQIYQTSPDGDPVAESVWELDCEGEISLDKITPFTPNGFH
For test [5], the target named is D(2) dopamine receptor (Homo sapiens) (UniProt P14416). The test is described as follows: Displacement of [3H]Spiperone from recombinant human Dopamine D2L receptor expressed in CHO cell membranes at 10 uM after 120 mins relative to control.
D(2) dopamine receptor (Homo sapiens), sequence (P14416 whole entry): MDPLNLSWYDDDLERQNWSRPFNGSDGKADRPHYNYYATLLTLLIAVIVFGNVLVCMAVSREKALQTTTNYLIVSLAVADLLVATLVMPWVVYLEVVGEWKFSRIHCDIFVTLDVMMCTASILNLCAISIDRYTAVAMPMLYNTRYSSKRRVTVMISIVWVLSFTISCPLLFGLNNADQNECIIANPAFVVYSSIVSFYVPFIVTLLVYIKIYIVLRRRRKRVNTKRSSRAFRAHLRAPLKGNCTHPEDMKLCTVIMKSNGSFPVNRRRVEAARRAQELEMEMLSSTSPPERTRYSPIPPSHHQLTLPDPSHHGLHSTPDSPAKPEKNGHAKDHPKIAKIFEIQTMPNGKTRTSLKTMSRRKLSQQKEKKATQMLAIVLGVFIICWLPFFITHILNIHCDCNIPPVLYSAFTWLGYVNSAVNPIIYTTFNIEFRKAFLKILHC
Test [6] deals with D(1A) dopamine receptor (Homo sapiens) (UniProt P21728). Briefly: Displacement of [3H]SCH-23390 from recombinant human Dopamine D1 receptor expressed in CHO cell membranes at 10 uM after 120 mins relative to control.
D(1A) dopamine receptor (Homo sapiens), sequence (P21728 whole entry): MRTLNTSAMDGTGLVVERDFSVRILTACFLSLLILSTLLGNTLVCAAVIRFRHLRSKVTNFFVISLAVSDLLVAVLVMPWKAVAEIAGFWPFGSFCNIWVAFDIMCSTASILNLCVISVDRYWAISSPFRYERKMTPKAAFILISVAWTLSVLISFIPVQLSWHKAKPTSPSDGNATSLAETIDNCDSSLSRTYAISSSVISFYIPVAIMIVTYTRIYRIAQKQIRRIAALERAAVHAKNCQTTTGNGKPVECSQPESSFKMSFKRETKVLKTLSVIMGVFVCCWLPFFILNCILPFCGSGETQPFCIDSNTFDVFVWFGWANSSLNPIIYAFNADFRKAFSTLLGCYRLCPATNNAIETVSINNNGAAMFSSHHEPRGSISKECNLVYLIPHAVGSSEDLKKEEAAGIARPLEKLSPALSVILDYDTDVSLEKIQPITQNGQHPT
Test [7] deals with D(2) dopamine receptor (Homo sapiens) (UniProt P14416). The test is described as follows: Displacement of [3H]Spiperone from recombinant human Dopamine D2S receptor expressed in CHO cell membranes at 10 uM after 120 mins relative to control.

Usually IC50 stands for the concentration at which inhibition is half-maximal. As a reminder, the Ki is the dissociation constant of the complex between target and ligand, obtained from inhibition or displacement. By inhibition is commonly meant how much of the control response was suppressed.

D(3) dopamine receptor (Homo sapiens), sequence (P35462 whole entry): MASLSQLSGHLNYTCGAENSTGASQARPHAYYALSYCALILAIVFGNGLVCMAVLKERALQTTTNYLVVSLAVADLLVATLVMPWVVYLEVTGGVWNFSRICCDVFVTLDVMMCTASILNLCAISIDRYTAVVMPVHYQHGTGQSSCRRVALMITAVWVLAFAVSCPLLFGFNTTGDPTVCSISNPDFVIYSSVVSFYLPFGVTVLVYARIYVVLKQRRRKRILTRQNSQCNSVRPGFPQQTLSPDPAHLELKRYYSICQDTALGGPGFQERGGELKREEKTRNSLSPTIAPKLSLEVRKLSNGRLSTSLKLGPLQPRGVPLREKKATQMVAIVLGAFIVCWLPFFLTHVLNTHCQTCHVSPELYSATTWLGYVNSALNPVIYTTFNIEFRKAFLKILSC

For the molecule `Clc1ccc(CN2CCO[C@H](CCc3ccccc3)C2)cc1`, in test [1], the IC50 is 0.13 µM and the Ki is 0.036 µM.
For `COc1ccc(CN2CCO[C@H](COc3ccccc3)C2)cc1F`, in that order: 0.056 µM and 0.0143 µM.
In the case of `Fc1ccccc1CC[C@H]1CN(Cc2c[nH]c3cc(Cl)ccc23)CCC1(F)F`, the inhibition in test [2] is 59%. In test [1], the half-maximal inhibitory concentration (IC50) is 5.99 µM and the inhibitory constant (Ki) was 1.66 µM.
For `Fc1ccc(CC[C@H]2CN(Cc3c[nH]c4cc(Cl)ccc34)CCC2(F)F)cc1`, in that order: 73%, 3.2 µM and 0.89 µM.
Consider `Cc1ccc(CN2CCC(F)(F)[C@@H](CCc3ccccc3)C2)cc1C`, for which the half-inhibitory concentration (IC50) in test [1] is more than 10 µM.
Take `COc1ccc2cc(CN3CCC(F)(F)[C@@H](CCc4ccccc4)C3)c(OC)nc2c1`: the inhibition in test [2] came out at 25%.
The same measure, in the same setting: then `FC1(F)CCN(Cc2c[nH]c3cc(Cl)ccc23)C[C@@H]1CCc1ccccc1`, with 58%; and `Fc1ccc2c(CN3CCC(F)(F)[C@@H](CCc4ccccc4)C3)c[nH]c2c1`, with 64%.
Take `COc1cccc(CCC2CN(Cc3c[nH]c4cc(F)ccc34)CCC2(F)F)c1` (racemic): the inhibition in test [2] stood at 88%. In addition, in test [1], the IC50 came out at 1.54 µM and the Ki is 0.43 µM.
For `COc1ccc2c(CN3CCC(F)(F)C(CCc4cccc(F)c4)C3)c[nH]c2c1` (racemic), in that order: 93%, 0.045 µM and 0.0125 µM.
Turning to `FC1(F)CCN(Cc2ccc3ncccc3c2)CC1CCc1ccccc1` (racemic), in test [2], the inhibition is 87%. In addition, in test [1], the IC50 turned out to be 1.36 µM and the Ki was 0.38 µM.
In the case of `COc1ccc2c(CN3CCC(F)(F)C(CCc4ccccc4F)C3)c[nH]c2c1` (racemic), the inhibition in test [2] is 95%; in test [3] it was 80%; in test [4] it was less than 50%; in test [5], less than 50%; in test [6] it was less than 50%; in test [7] it was 66%. In addition, in test [1], the 50% inhibitory concentration (IC50) was 0.021 µM. Besides, the inhibition constant (Ki) in test [1] amounted to 0.0059 µM.
As to `COc1ccccc1CCC1CN(Cc2c[nH]c3cc(Cl)ccc23)CCC1(F)F` (racemic), the inhibition in test [2] is 94%. In test [1], the IC50 was 0.23 µM and the inhibition constant (Ki) turned out to be 0.064 µM.
For `COc1cccc(CCC2CN(Cc3c[nH]c4cc(OC)ccc34)CCC2(F)F)c1` (racemic), in that order: 89%, 0.55 µM and 0.15 µM.
On the same counts, the results for `COc1ccc2c(CN3CCC(F)(F)C(CCc4ccc(F)cc4)C3)c[nH]c2c1` (racemic) are 96%, 0.037 µM and 0.0103 µM.
In the case of `COc1ccc(CCC2CN(Cc3c[nH]c4cc(Cl)ccc34)CCC2(F)F)cc1` (racemic), the inhibition in test [2] was 88%. In test [1], the half-inhibitory concentration (IC50) was 0.64 µM and the inhibition constant Ki turned out to be 0.18 µM.
For `Fc1cccc(CCC2CN(Cc3c[nH]c4cc(Cl)ccc34)CCC2(F)F)c1` (racemic), in that order: 94%, 0.16 µM and 0.044 µM.
On the same counts, the results for `Fc1ccc(CCC2CN(Cc3c[nH]c4cc(F)ccc34)CCC2(F)F)cc1` (racemic) are 94%, 0.025 µM and 0.007 µM.
On the same counts, the results for `COc1ccc2c(CN3CCC(F)(F)C(CCc4ccccc4OC)C3)c[nH]c2c1` (racemic) are 76%, 0.37 µM and 0.1 µM.
With `Fc1ccccc1CCC1CN(Cc2ccc(Cl)cc2)CCC1(F)F` (racemic), the inhibition in test [2] worked out at 92%. In test [1], the half-inhibitory concentration (IC50) is 0.098 µM and the inhibition constant Ki amounted to 0.027 µM.
Turning to `CSc1ccc(CN2CCC(F)(F)C(CCc3ccccc3)C2)cc1` (racemic), in test [2], the inhibition came to 93%. Besides, in test [1], the IC50 was 0.51 µM and the Ki stood at 0.14 µM.
On the same counts, the results for `FC1(F)CCN(Cc2ccc3ccccc3c2)CC1CCc1ccccc1` (racemic) are 80%, 0.79 µM and 0.22 µM.
For `Fc1ccc2c(CN3CCC(F)(F)C(CCc4ccccc4F)C3)c[nH]c2c1` (racemic), in that order: 95%, 0.031 µM and 0.0086 µM.
For `COc1ccc(CCC2CN(Cc3c[nH]c4cc(OC)ccc34)CCC2(F)F)cc1` (racemic), in that order: 93%, 0.43 µM and 0.12 µM.
For `FC1(F)CCN(Cc2ccc(Cl)cc2)CC1CCc1ccccc1` (racemic), the inhibition in test [2] turned out to be 80%. In test [1], the IC50 was found to be 0.76 µM and the Ki worked out at 0.21 µM.
On the same counts, the results for `COc1ccc(CCC2CN(Cc3c[nH]c4cc(F)ccc34)CCC2(F)F)cc1` (racemic) are 91%, 0.48 µM and 0.13 µM.
For `COc1ccc(CN2CCC(F)(F)C(CCc3ccccc3)C2)cc1F` (racemic), in that order: 88%, 0.11 µM and 0.031 µM.
In the case of `Fc1ccc(CCC2CN(Cc3ccc(Cl)cc3)CCC2(F)F)cc1` (racemic), the inhibition in test [2] came to 95%. In test [1], the IC50 amounted to 0.065 µM and the Ki came to 0.0179 µM.
On the same counts, the results for `COc1ccc(CN2CCC(F)(F)C(CCc3ccccc3)C2)cc1` (racemic) are 87%, 0.43 µM and 0.12 µM.
Turning to `Fc1ccccc1CCC1CN(Cc2ncn3ccccc23)CCC1(F)F` (racemic), the inhibition in test [2] came to 92%. Also, in test [1], the 50% inhibitory concentration (IC50) was 0.15 µM and the Ki was determined as 0.042 µM.
As to `COc1ccccc1CCC1CN(Cc2c[nH]c3cc(F)ccc23)CCC1(F)F` (racemic), the inhibition in test [2] was 94%. In test [1], the half-inhibitory concentration (IC50) turned out to be 0.17 µM and the Ki amounted to 0.048 µM.
`FC1(F)CCN(Cc2cccc3cc[nH]c23)CC1CCc1ccccc1` (racemic): the inhibition in test [2] turned out to be 88%. In test [1], the IC50 turned out to be 0.3 µM and the inhibition constant (Ki) was 0.084 µM.
In the case of `COc1ccccc1CCC1CN(Cc2ccc(Cl)cc2)CCC1(F)F` (racemic), the inhibition in test [2] was determined as 75%. Moreover, in test [1], the IC50 amounted to 0.23 µM and the Ki came to 0.063 µM.
On to `CCOc1ccccc1CN1CCC(F)(F)C(CCc2ccccc2)C1` (racemic), for which the inhibition in test [2] was 49%.
With `COc1ccc(CN2CCC(F)(F)C(CCc3ccccc3)C2)cc1OC` (racemic), the inhibition in test [2] was found to be 77%.
The same measure, in the same setting: then `COc1cccc(CCC2CN(Cc3ccc(Cl)cc3)CCC2(F)F)c1` (racemic), with 67%; and `COc1cccc(CCC2CN(Cc3ncn4ccccc34)CCC2(F)F)c1` (racemic), with 66%; and `COc1cccc2ccc(CN3CCC(F)(F)C(CCc4ccccc4)C3)nc12` (racemic), with 54%.
Take `COc1ccccc1CCC1CN(Cc2c[nH]c3cccc(F)c23)CCC1(F)F` (racemic): in test [2], the inhibition stood at 3%.
On the same count and under the same terms, then `FC(F)(F)Oc1ccc(CN2CCC(F)(F)C(CCc3ccccc3)C2)cc1` (racemic), with 70%.
The same measure, in the same setting: with `FC(F)(F)c1cc(CN2CCC(F)(F)C(CCc3ccccc3)C2)cc(C(F)(F)F)c1` (racemic) the figure was 0%; with `FC(F)(F)c1ccc(CN2CCC(F)(F)C(CCc3ccccc3)C2)cc1` (racemic), 79%; with `FC(F)(F)c1cccc(CN2CCC(F)(F)C(CCc3ccccc3)C2)c1` (racemic), 48%.
On the same count and under the same terms, then `FC1(F)CCN(Cc2cc3ccccc3s2)CC1CCc1ccccc1` (racemic), with 51%; and `FC1(F)CCN(Cc2ccc3[nH]ncc3c2)CC1CCc1ccccc1` (racemic), with 68%.
Consider `FC1(F)CCN(Cc2ccc3ccccc3n2)CC1CCc1ccccc1` (racemic), for which the inhibition in test [2] came out at 70%.
As to `FC1(F)CCN(Cc2cccc(Cl)c2)CC1CCc1ccccc1` (racemic), in test [2], the inhibition stood at 55%.
As for `FC1(F)CCN(Cc2cccc3c2OCO3)CC1CCc1ccccc1` (racemic), the inhibition in test [2] was 18%.
For the molecule `FC1(F)CCN(Cc2nc3cc(Cl)ccc3cc2Cl)CC1CCc1ccccc1` (racemic), the inhibition in test [2] turned out to be 16%.
Consider `Fc1ccc(CN2CCC(F)(F)C(CCc3ccccc3)C2)c(Cl)c1` (racemic), for which the inhibition in test [2] is 6%.
The same measure, in the same setting: then `Fc1ccc2nc(CN3CCC(F)(F)C(CCc4ccccc4)C3)ccc2c1` (racemic), with 66%; and `Fc1cccc(CCC2CN(Cc3c[nH]c4cccc(F)c34)CCC2(F)F)c1` (racemic), with 59%.
Same read-out and setting: with `Fc1cccc(CCC2CN(Cc3ncn4ccccc34)CCC2(F)F)c1` (racemic) the figure was 78%; with `Fc1cccc(Cl)c1CN1CCC(F)(F)C(CCc2ccccc2)C1` (racemic), 10%.
Same read-out and setting: then `Fc1cccc2ccc(CN3CCC(F)(F)C(CCc4ccccc4)C3)nc12` (racemic), with 69%; and `Fc1ccccc1CCC1CN(Cc2c[nH]c3cccc(F)c23)CCC1(F)F` (racemic), with 62%.
For the molecule `N#Cc1cc(CN2CCC(F)(F)C(CCc3ccccc3)C2)ccc1F` (racemic), in test [2], the inhibition came out at 66%.
As for `N#Cc1ccccc1CN1CCC(F)(F)C(CCc2ccccc2)C1` (racemic), in test [2], the inhibition was 10%.
